Test results: PMC7778589, “Photosensitizer-based multimodal PSMA-targeting ligands for intraoperative detection of prostate cancer” (Theranostics, 2021)

Experiments:
[1] = target: T1, PSMA-expressing LS174T cells (LS174T-PSMA) (Homo sapiens, UniProt Q04609); experiment: Binding and internalization assay with 111In-labeled ligands; type: cell-based; settings: 2 h 37 °C
T1 construct: expressed in transfected cells; host or cells: LS174T colon carcinoma cells (human), stably transfected with pcDNA3.1-hPSMA
T1 sequence (Q04609 whole entry): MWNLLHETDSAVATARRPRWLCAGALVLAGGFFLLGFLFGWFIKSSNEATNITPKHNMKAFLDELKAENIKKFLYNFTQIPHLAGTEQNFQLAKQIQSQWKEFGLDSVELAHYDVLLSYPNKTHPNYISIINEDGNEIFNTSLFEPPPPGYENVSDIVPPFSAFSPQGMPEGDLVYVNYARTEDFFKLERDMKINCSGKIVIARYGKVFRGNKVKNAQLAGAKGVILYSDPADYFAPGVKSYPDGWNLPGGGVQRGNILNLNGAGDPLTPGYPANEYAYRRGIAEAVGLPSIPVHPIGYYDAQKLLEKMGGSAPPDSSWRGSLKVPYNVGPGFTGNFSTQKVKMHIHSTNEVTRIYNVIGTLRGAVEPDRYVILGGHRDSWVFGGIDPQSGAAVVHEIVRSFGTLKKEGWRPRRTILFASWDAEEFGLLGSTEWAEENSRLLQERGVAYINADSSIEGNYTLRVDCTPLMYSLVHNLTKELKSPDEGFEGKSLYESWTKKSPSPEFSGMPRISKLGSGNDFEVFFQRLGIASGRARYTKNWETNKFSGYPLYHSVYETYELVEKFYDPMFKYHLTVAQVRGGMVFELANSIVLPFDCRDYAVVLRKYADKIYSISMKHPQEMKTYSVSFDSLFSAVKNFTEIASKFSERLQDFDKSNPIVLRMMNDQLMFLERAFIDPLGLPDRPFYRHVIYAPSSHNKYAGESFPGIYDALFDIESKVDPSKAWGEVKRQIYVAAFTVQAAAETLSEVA
Experimental: Cell lines were purchased from the American Type Culture Collection. LS174T colon carcinoma cells were stably transfected with human PSMA using the plasmid pcDNA3.1-hPSMA and cultured in RPMI 1640 medium supplemented with 2 mM glutamine, 10% FCS, and 0.3 mg/ml G418 at 37 °C in a humidified atmosphere with 5% CO2 [5].
Binding and internalization characteristics of all ligands were compared using LS174T-PSMA and wildtype LS174T cells. Cells were cultured to confluency in 6-wells plates followed by incubation at 37 °C for 2 h in 1 ml binding buffer (RPMI/0.5% BSA) with 50,000 counts per minute (cpm) of ^111In-labeled ligand (0.1-0.25 pmol/well). Nonspecific binding was determined by coincubation with 2-(phosphonomethyl)pentane-1,5-dioic acid (2-PMPA, 21.57 µM). PSMA-specific binding was defined as nonspecific binding subtracted from total binding. To retrieve the membrane-bound fraction, cells were washed with PBS twice and incubated with acid buffer (0.1 M acetic acid, 154 mM NaCl, pH 2.6) for 10 minutes at 0 °C. After incubation, the membrane bound fraction (in acid buffer) was collected, cells were washed, lysed with 0.1 M NaOH and cell lysis (intercellular activity) was collected. Membrane-bound activity and intercellular activity fractions were measured in a gamma-counter (2480 WIZARD^2 Automatic Gamma Counter, PerkinElmer), [25]. Human serum was used to determine the in vitro serum stability of the multimodal ligands (0.8 µg/ml serum, 5 MBq/μg labeling). After incubation for 2 h at 37°C, serum proteins were precipitated by adding a 1:1 (v/v) volume of acetonitrile followed by 5 min of centrifugation at 3220×g. Stability was evaluated by RP-HPLC analysis after 2 h of incubation at 37 °C. […] Experimental details are described in the supplementary materials and methods.

[2] = Lipophilicity, PBS/n-octanol; type: physicochemical; settings: radiolabeled ligand
Experimental: Tubes were vortexed vigorously for 1 min and centrifuged for 5 min at 201×g for phase separation. The concentration of radioactivity in a defined volume of each layer was measured in a well-type gamma-counter.

[3] = test system: LS174T-PSMA and LS174T xenografts; experiment: Biodistribution of 111In-labeled multimodal ligands; type: in vivo, BALB/c nude mice; settings: 0.3 nmol, 2 h p.i.
Experimental: Animal experiments were performed in 8-10 weeks old male BALB/c nude mice (Janvier). Animals were housed in individually ventilated cages (Blue line IVC, 4-5 mice per cage) under nonsterile standard conditions with cage enrichment present and free access to chlorophyll-free animal chow (Sniff GmbH) and water. Mice were subcutaneously inoculated with 3.0 x 10^6 LS174T-PSMA cells in the left flank and 1.5 × 10^6 LS174T cells in the right flank, diluted in 200 μL of complete RPMI 1640 medium. Eleven days after tumor cell inoculation when xenografts were approximately 0.1 cm^3, tracers were injected intravenously via the tail vein. The researchers were not blinded for the experimental groups and tumor-bearing mice were block-randomized into groups based on tumor size. All experiments were approved by the institutional Animal Welfare Committee of the Radboud university medical center and were conducted in accordance to the guidelines of the Revised Dutch Act on Animal Experimentation.
Mice were injected intravenously with 10 MBq ^111In-labeled PSMA ligands (0.3 nmol, molar activity 33.3 MBq/nmol) in PBS/0.5% BSA. Two hours post injection, mice were euthanized by CO2/O2-asphyxation and images were acquired with the IVIS fluorescence imaging system (Xenogen VivoVision IVIS Lumina II, Caliper Life Sciences), using an acquisition time of 10 s. Subsequently, µSPECT/CT images were acquired (U-SPECT II, MILabs) with a 1.0 mm diameter pinhole mouse collimator tube [26]. Mice were scanned for 30 min followed by a CT scan (spatial resolution 160 μm, 65 kV, 615 μA) for anatomical reference. µSPECT/CT scans were reconstructed with MILabs reconstruction software, using an ordered-subset expectation maximization algorithm, energy windows 154 - 188 keV and 220-270 keV, 3 iterations, 16 subsets, voxel size of 0.4 mm. SPECT/CT scans were analyzed and maximum intensity projections (MIPs) were created using the Inveon Research Workplace software version 4.1 (Siemens Preclinical Solutions). NIRF images were analyzed using Living Image software version 4.2 (Caliper Life Sciences). Tissues of interest were dissected, weighed and measured for radioactivity in a gamma-counter as described above. In the fluorescence-guided surgery feasibility study, pre-operative imaging was performed to visualize tumor tissue. After white light resection, NIRF imaging was repeated to assess if any remaining tumor was present.

SMILES: C[Si](C)(CCC[N+](CCCS(=O)(=O)O)(CCCS(=O)(=O)O)CCCS(=O)(=O)O)O[Si-2]123(O[Si](C)(C)CCC[N+](CCCS(=O)(=O)O)(CCCS(=O)(=O)O)CCCS(=O)(=O)O)n4c5c6ccccc6c4N=C4c6cccc(OCCCOC(=O)NCCCCCC(=O)NCCCC[C@H](NC(=O)CCC(C(=O)O)N7CCN(CC(=O)O)CCN(CC(=O)O)CCN(CC(=O)O)CC7)C(=O)N[C@@H](CCC(=O)O)C(=O)N[C@@H](CCC(=O)O)C(=O)NCCCCCC(=O)NCCCC[C@H](NC(=O)N[C@@H](CCC(=O)O)C(=O)O)C(=O)O)c6C(=[N+]41)N=c1c4ccccc4c(n12)=NC1=[N+]3C(=N5)c2ccccc21.[Na+].[Na+].[Na+].[Na+] (stereo partly drawn) [N144]
- Internalized fraction [1]: 2.5 ± 0.05
- Membrane bound fraction [1]: 0.3 ± 0.03
- LogD [2]: -2.4 ± 0.01
- Adrenals [3]: 1.3 %ID/g
- Blood [3]: 0.2 %ID/g
- Bone [3]: 0.5 %ID/g
- Bone marrow [3]: 0.3 %ID/g
- Duodenum [3]: 0.3 %ID/g
- Heart [3]: 0.3 %ID/g
- Kidney [3]: 70.3 %ID/g
- Liver [3]: 0.6 %ID/g
- Lung [3]: 0.4 %ID/g
- Muscle [3]: 0.2 %ID/g
- Pancreas [3]: 0.2 %ID/g
- Prostate [3]: 0.5 %ID/g
- Salivary glands [3]: 0.4 %ID/g
- Spleen [3]: 1.1 %ID/g
- Stomach [3]: 0.3 %ID/g
- Tumor+ LS174T-PSMA [3]: 11.7 %ID/g
- Tumor- LS174T [3]: 0.5 %ID/g
- Tumor/Blood ratio [3]: 71.9
- Tumor/Kidney ratio [3]: 0.2
- Tumor/Liver ratio [3]: 21.3
- Tumor/Muscle ratio [3]: 110
- Tumor/Negative tumor ratio [3]: 28.8
- Tumor/Prostate ratio [3]: 32
- Tumor/Salivary gland ratio [3]: 30.3
- Tumor/Spleen ratio [3]: 12.3

SMILES: C[Si](C)(CCC[N+](CCCS(=O)(=O)O)(CCCS(=O)(=O)O)CCCS(=O)(=O)O)O[Si-2]123(O[Si](C)(C)CCC[N+](CCCS(=O)(=O)O)(CCCS(=O)(=O)O)CCCS(=O)(=O)O)n4c5c6ccccc6c4N=C4c6cccc(OCCCOC(=O)NCCCCCC(=O)NCCCC[C@H](NC(=O)CCOCCOCCOCCOCCNC(=O)CCC(C(=O)O)N7CCN(CC(=O)O)CCN(CC(=O)O)CCN(CC(=O)O)CC7)C(=O)N[C@H](Cc7ccccc7)C(=O)N[C@@H](CCC(=O)O)C(=O)N[C@@H](CCC(=O)O)C(=O)NCCCCCC(=O)NCCCC[C@H](NC(=O)N[C@@H](CCC(=O)O)C(=O)O)C(=O)O)c6C(=[N+]41)N=c1c4ccccc4c(n12)=NC1=[N+]3C(=N5)c2ccccc21.[Na+].[Na+].[Na+].[Na+] (stereo partly drawn) [NJ26]
- Internalized fraction [1]: 1.8 ± 0.03
- Membrane bound fraction [1]: 0.5 ± 0.05
- LogD [2]: -2.4 ± 0.13
- Adrenals [3]: 1.5 %ID/g
- Blood [3]: 0.3 %ID/g
- Bone [3]: 0.2 %ID/g
- Bone marrow [3]: 0.4 %ID/g
- Duodenum [3]: 0.3 %ID/g
- Heart [3]: 0.3 %ID/g
- Kidney [3]: 59.9 %ID/g
- Liver [3]: 0.6 %ID/g
- Lung [3]: 0.5 %ID/g
- Muscle [3]: 0.2 %ID/g
- Pancreas [3]: 0.2 %ID/g
- Prostate [3]: 0.5 %ID/g
- Salivary glands [3]: 0.4 %ID/g
- Spleen [3]: 0.9 %ID/g
- Stomach [3]: 0.3 %ID/g
- Tumor+ LS174T-PSMA [3]: 11.5 %ID/g
- Tumor- LS174T [3]: 0.4 %ID/g
- Tumor/Blood ratio [3]: 49.1
- Tumor/Kidney ratio [3]: 0.2
- Tumor/Liver ratio [3]: 21.3
- Tumor/Muscle ratio [3]: 116.4
- Tumor/Negative tumor ratio [3]: 31.7
- Tumor/Prostate ratio [3]: 29.4
- Tumor/Salivary gland ratio [3]: 35
- Tumor/Spleen ratio [3]: 14.2

SMILES: C[Si](C)(CCC[N+](CCCS(=O)(=O)O)(CCCS(=O)(=O)O)CCCS(=O)(=O)O)O[Si-2]123(O[Si](C)(C)CCC[N+](CCCS(=O)(=O)O)(CCCS(=O)(=O)O)CCCS(=O)(=O)O)n4c5c6ccccc6c4N=C4c6cccc(OCCCOC(=O)NCCCCCC(=O)NCCCC[C@H](NC(=O)CCOCCOCCOCCOCCNC(=O)CN7CCN(CC(=O)O)CCN(CC(=O)O)CCN(CC(=O)O)CC7)C(=O)N[C@H](Cc7ccccc7)C(=O)N[C@@H](CCC(=O)O)C(=O)N[C@@H](CCC(=O)O)C(=O)NCCCCCC(=O)NCCCC[C@H](NC(=O)N[C@@H](CCC(=O)O)C(=O)O)C(=O)O)c6C(=[N+]41)N=c1c4ccccc4c(n12)=NC1=[N+]3C(=N5)c2ccccc21.[Na+].[Na+].[Na+].[Na+] [NJ27]
- Internalized fraction [1]: 1.1 ± 0.05
- Membrane bound fraction [1]: 0.3 ± 0.04
- LogD [2]: -2.3 ± 0.11
- Adrenals [3]: 0.7 %ID/g
- Blood [3]: 0.2 %ID/g
- Bone [3]: 0.2 %ID/g
- Bone marrow [3]: 0.4 %ID/g
- Duodenum [3]: 0.2 %ID/g
- Heart [3]: 0.3 %ID/g
- Kidney [3]: 51.4 %ID/g
- Liver [3]: 0.6 %ID/g
- Lung [3]: 0.3 %ID/g
- Muscle [3]: 0.1 %ID/g
- Pancreas [3]: 0.2 %ID/g
- Prostate [3]: 0.3 %ID/g
- Salivary glands [3]: 0.3 %ID/g
- Spleen [3]: 0.6 %ID/g
- Stomach [3]: 0.2 %ID/g
- Tumor+ LS174T-PSMA [3]: 9.1 ± 2 %ID/g
- Tumor- LS174T [3]: 0.4 %ID/g
- Tumor/Blood ratio [3]: 62.6
- Tumor/Kidney ratio [3]: 0.2
- Tumor/Liver ratio [3]: 15.9
- Tumor/Muscle ratio [3]: 106.4
- Tumor/Negative tumor ratio [3]: 27.1
- Tumor/Prostate ratio [3]: 32.7
- Tumor/Salivary gland ratio [3]: 33.2
- Tumor/Spleen ratio [3]: 17.3
